Source: paper PMC11451635, “A Broad Spectrum Lasso Peptide Antibiotic Targeting the Bacterial Ribosome” (Research Square, 2024)
“Also recorded” adds a separate entry of the source.

Assays:
E. coli ribosome = test: Translocation inhibition assay; assay type: biochemical, Escherichia coli; settings: 62.5 μM LAR or 250 μM negamycin, EF-G/GTP, primer extension
[1] = system: T. thermophilus 70S ribosome; test: X-ray structure of ribosome complex; assay type: binding, Thermus thermophilus; settings: 70S ribosome with mRNA and tRNAs, 250 μM antibiotic
bacteria = test: Antibiotic activity compared with LAR; assay type: cell-based; settings: Supplementary Fig. 11
Experimental: MICs were determined using broth microdilution method in cation-adjusted Mueller-Hinton Broth (MHBII, BD Difco) following standard procedures unless stated otherwise. Mycobacteria susceptibility was tested in Middlebrook 7H9 medium supplemented with 10% OADC Enrichment (oleic acid, bovine albumin, dextrose, and catalase) (BD Difco). The compounds (2 to 4 μl) were mixed with diluted cultures (5–7 × 10^5 cfu/mL) in MHB (196 to 198 μL) in 96-well round-bottom plates, and 2-fold serial dilutions were made. Plates were incubated at 37°C for 18–22 h, and OD600 readings were taken on Synergy Microplate Reader (Biotek). MIC was determined to be the lowest concentration of antibiotics with no visible growth. For Mycobacterial cultures, the plates were read after two to three days. Susceptibility was also assessed in MOPS minimal medium with 0.4% glucose (M2106 Teknova) and RPMI-1640 medium. Serum effects were tested in MHB with 10% or 50% fetal bovine serum (Invitrogen) or human serum (Heat Inactivated, from human male AB plasma; Sigma-Aldrich). For anaerobic conditions, E. coli was incubated in BD GasPak™ EZ pouch systems. To adjust the pH of the media, 1M NaOH or 1N HCl was used.

ClpP protease = settings: cited from earlier work
mycobacteria = settings: cited from earlier work

With `CN(CC(=O)O)NC(=O)C[C@H](N)C[C@@H](O)CN` [negamycin, reference compound] as the compound, how does the “Inhibition of ribosome translocation” value (E. coli ribosome) read?
Its value is “interferes with the movement of mRNA/tRNA complex through the ribosome”.

For lariocidin B [LAR-B], which “Ribosome binding (X-ray structure)” value [1] is on record?
The value was “Both LAR variants form very similar complexes with the ribosome”.

And the “Antibiotic activity relative to LAR” value (bacteria)?
Its value is “antibiotic activity comparable to that of the main LAR product; also recorded: closely matched that of LAR”.

For lassomycin, which Target / activity (ClpP protease) is on record?
Its Target / activity is “targets microbial ClpP protease”.

What about the Antimycobacterial activity (mycobacteria) of the same compound?
Its Antimycobacterial activity is “exhibits antimycobacterial activity”.

Which Antimycobacterial activity (mycobacteria) does the source give for triculamin here?
The Antimycobacterial activity was “antimycobacterial”.
